# Marks after values point to notes of the source that are not given here.
# Columns and labels:
# [1] = test system: LPS induced IL-6 production; test: LPS (lipopolysaccharide) induced IL-6 production mouse assay; assay type: in vivo; settings: 3 mg/kg oral, 1 h before LPS 2.5 mg/kg i.p.; serum IL-6 2 h after LPS; SCID female mice; all p<0.05
# Description: Compounds of the Examples listed in Table 2 were assayed for their ability to inhibit LPS (lipopolysaccharide) induced IL-6 (Interleukin-6) production in mice. Fox Chase SCID® female mice (Charles Rivers Labs, 5 per group) received an intraperitoneal challenge of lipopolysaccharide (2.5 mg/kg, L2630 E. coli 0111:B4) one hour after oral administration of compounds. Mice were euthanized 2 hours after lipopolysaccharide injection, blood was removed by cardiac puncture, and then the serum harvested from the blood samples was frozen at −80° C. On the day of the assay the serum samples were brought to room temperature and then diluted 1:20 in phosphate-buffered saline containing 2% bovine serum albumin. Interleukin-6 measurements were performed using a cytokine assay from Meso Scale Discovery (Gaithersburg, Md.) for mouse serum analysis according to the manufacturer's protocol and read on a SECTOR Imager 6000 (Meso Scale Discovery, Gaithersburg, Md.) instrument. Statistical analysis was performed using Prism software (version 5.0) incorporating Dunnett's one way ANOVA. The IL-6 mean and standard deviation of the group of vehicle treated animals were compared with the IL-6 mean and standard deviation of the group treated with drug. A p value<0.05 means that there is less than a 5% probability that the mean values in the two groups are equal.
# Xenograft Tumor Growth Inhibition Assay
# BRD4 (BDII_E352-M457) = molecular target: T1, BRD4 (BDII_E352-M457) (Homo sapiens, UniProt O60885); test: TR-FRET bromodomain binding assay, BRD4 second bromodomain
# T1 construct: made in house
# Summary of the method: (§1)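 His-tagged BRD4 BD1 (K57-E168) or BD2 (8 nM) with Eu-anti-His antibody and Alexa647-labeled BET-inhibitor probe (100 nM for BDI, 30 nM for BDII), pH 6.0 phosphate buffer, 2% DMSO, 1 h at room temperature. TR-FRET (Ex 340, Em 495/520); IC50 by 4-parameter fit, converted to Ki using probe Kd and concentration.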
# BRD4 (BDI_K57-E168) = molecular target: T2, BRD4 (BDI_K57-E168) (Homo sapiens, UniProt O60885); test: TR-FRET bromodomain binding assay, BRD4 first bromodomain; settings: His-tagged BD1, 100 nM Alexa647 probe; Ki calculated from IC50; dilution protocol A-G
# T2 construct: BD1: amino acids K57-E168; made in house
# Summary of the method: as §1
# [2] = test system: breast cancer cell line MX-1; test: MX-1 cell line proliferation assay (3-day, Cell Titer Glo); assay type: cell-based; settings: Homo sapiens, MX1, MX-1 cells, 72 h, top concentration 3 μM, read-out: Cellular proliferation: EC50
# Summary of the method: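 MX-1 cells, 5000/well in RPMI 1640 with 10% FBS, adhered overnight, then treated 3 days with compound at final 3 to 0.0001 μM (3-fold steps). Cell Titer Glo luminescence normalized to DMSO-treated cells; EC50 from sigmoidal fit.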
# [3] = test system: OPM-2 human multiple myeloma xenograft tumors; test: OPM-2 xenograft tumor growth inhibition assay; assay type: in vivo, mice; settings: QDx21; for % TGI: SCID-beige mice; for % TGD (tumor growth delay): endpoint 1000 mm^3
# Description: The effect of compounds of the examples to inhibit the growth of OPM-2 xenograft tumors implanted in mice was evaluated. A suspension of cancer cells (5×10^6 per 0.1 mL) prepared in RPMI culture medium (Invitrogen, Carlsbad, Calif.) was diluted 1:1 with a solution of Matrigel™ (BD Biosciences, Franklin Lakes, N.J.) and inoculated subcutaneously into the right hind flank of female SCID-beige (Charles River Labs) mice. Randomization into treatment and vehicle control groups (10/group) occurred when the mean tumor volume reached approximately 250 mm^3. Compounds were formulated in 2.5% DMSO, 10% EtOH, 27.5% PEG 400, 60% Phosol 53 MCT. Administration of compound or vehicle was initiated on the day following randomization and continued for 21 days. Tumors were measured twice a week throughout the treatment period using a pair of calipers and tumor volumes were calculated according to the formula V=L×W^2/2 (V: volume, mm^3; L: length, mm. W: width, mm) Tumor growth inhibition was calculated based on the mean tumor volume measured on the first day that the mean volume of the vehicle group exceeded 2000 mm^3 according to the formula % TGI=100-mean tumor volume of treatment group/mean tumor volume of control group x 100.
SMILES,% inhibition of LPS induced IL-6 production at 3 mg/kg [1],Ki (BRD4 (BDII_E352-M457)),Ki (BRD4 (BDI_K57-E168)),EC50 [2],% removed from study (morbidity or weight loss in excess of 20%) ([3]; 45 mg/kg PO),% TGI ([3]; 45 mg/kg PO),% TGD (tumor growth delay) ([3]; 45 mg/kg PO),% removed from study (morbidity or weight loss in excess of 20%) ([3]; 150 mg/kg PO),% TGI ([3]; 150 mg/kg PO),% TGD (tumor growth delay) ([3]; 150 mg/kg PO)
"COC(=O)c1cc2c(-c3cc(N)ccc3Oc3ccccc3)[nH]c(C)c2c(=O)[nH]1 [Example 2, methyl 1-(5-amino-2-phenoxyphenyl)-3-methyl-4-oxo-4,5-dihydro-2H-pyrrolo[3,4-c]pyridine-6-carboxylate]",25%,21.5 nM,1.47 nM,24 nM,–,–,–,–,–,–
"Cc1[nH]c(-c2cc(N)ccc2Oc2ccccc2)c2c1C(=O)NCC2 [Example 94, 1-(5-amino-2-phenoxyphenyl)-3-methyl-2,5,6,7-tetrahydro-4H-pyrrolo[3,4-c]pyridin-4-one]",27%,32.4 nM,17.2 nM,91.9 nM,–,–,–,–,–,–
"CCCNC(=O)c1cc2c(-c3cc(N)ccc3Oc3ccc(F)cc3F)[nH]c(C)c2c(=O)[nH]1 [Example 43, 1-[5-amino-2-(2,4-difluorophenoxy)phenyl]-3-methyl-4-oxo-N-propyl-4,5-dihydro-2H-pyrrolo[3,4-c]pyridine-6-carboxamide]",39%,25.4 nM,15.9 nM,150 nM,–,–,–,–,–,–
"COCCNC(=O)c1cc2c(-c3ccccc3Oc3ccccc3)[nH]c(C)c2c(=O)[nH]1 [Example 29, N-(2-methoxyethyl)-3-methyl-4-oxo-1-(2-phenoxyphenyl)-4,5-dihydro-2H-pyrrolo[3,4-c]pyridine-6-carboxamide]",40%,46.7 nM,10.6 nM,114 nM,–,–,–,–,–,–
"Cc1[nH]c(-c2cc(C#N)ccc2Oc2ccc(F)cc2F)c2cn[nH]c(=O)c12 [Example 82, 4-(2,4-difluorophenoxy)-3-(7-methyl-1-oxo-2,6-dihydro-1H-pyrrolo[3,4-d]pyridazin-5-yl)benzonitrile]",44%,357 nM,36.7 nM,167 nM,–,–,–,–,–,–
"Cc1[nH]c(-c2cc(S(C)(=O)=O)ccc2Oc2ccc(F)cc2F)c2c1C(=O)NCC2 [Example 98, 1-[2-(2,4-difluorophenoxy)-5-(methylsulfonyl)phenyl]-3-methyl-2,5,6,7-tetrahydro-4H-pyrrolo[3,4-c]pyridin-4-one]",–,148 nM,34.9 nM,721 nM,0%,45** %,53** %,20%,68*** %,123** %
